Reference: article PMC10415494, “Ga(III) pyridinecarboxylate complexes: potential analogues of the second generation of therapeutic Ga(III) complexes?” (Journal of Biological Inorganic Chemistry, 2023)
≈ marks a conversion by molar mass, not a printed value.

Columns and labels:
[1] = Description: The stock solution of HPic and H2Dpic was prepared by dissolving in demineralized water (c(ligand) = 0.02 M). The gallium(III) ion solution was prepared from anhydrous gallium(III) nitrate (c(Ga^3+) = 0.05 M) and was standardized by back titration of excess of EDTA with zinc(II). Decarbonated potassium hydroxide solution (approx. 0.2 M) was used as a titrant that was standardized by potassium hydrogen phthalate (c(KHP) = 0.1 M). Standard inert electrolyte of nitric acid was used in all titrations (c(HNO3) = 0.03 M, I(HNO3/KNO3) = 0.1 M). Potentiometric measurements were carried out using a TitroLine 7000 dosage system with a BlueLine combination electrode (SI Analytics) in a glass vessel (5 mL) thermostated at 25 ± 0.1 °C at an ionic strength I(KNO3) = 0.1 M. Inert atmosphere was ensured by a constant flow of a nitrogen gas. Precise calibration of the electrode was carried out by the titration of 0.03 M HNO3 with 0.2 M KOH in the range –log[H^+] = 1.8–12.0, with the pH-meter yielding E values. The relation between E and –log[H^+] is expressed by Eq. (1) where the term E^0 contains the standard potentials of the electrode and the contribution of inert ions to the liquid-junction potential. The value S corresponds to the Nernstian slope, the value of which should be close to the theoretical value, and j1[H^+] and j2[OH^–] = j2Kw/[H^+] are contributions of the H^+ and OH^– ions, respectively, to the liquid-junction potential. The pKw value was 13.78 in Eq. (1).1 E=E^0-S-logH^++j1H^++j2Kw/H^+
The parameters j1 and j2 cause deviation from linear dependence between E and –log[H^+] only in strongly acidic and strongly alkaline solutions. The picolinic and dipicolinic acid protonation constants were determined with ligand concentration 0.004 M. The stability constants in the Ga-HPic and Ga-H2Dpic binary system were determined by the ligand concentrations 0.004 and the Ga^3+ concentration was 0.004, 0.002 and 0.001 M in dependence on the ligand to metal ratio.
The protonation constants β110, β210 are the concentration constants and are defined by β110 = [HL]/ [H][L], β210 = [H2L]/ [H]^2[L] (pK2 = logβ110, pK1 = logβ210- logβ110); the stability constants are defined by βrqp = [HrLqMp]/[H]^r[L]^q[M]^p. The equilibrium constants were obtained by fitting the titration data with OPIUM [23]. The following hydrolysis constants were used for the calculations: βpr = [Mp(OH)r^3−r][H]^r/[M]^p; log β11 = − 2.74; log β12 = − 7.0; log β13 = − 11.96; log β14 = − 15.52 [24].

[2] = test system: Staphylococcus aureus (S. aureus) CCM 3953; test: Antimicrobial activity, macrodilution method (growth by A590); type: cell-based; conditions: Staphylococcus aureus, CCM3953; positive control; read-out: MIC100 for S. aureus
Description: (§1) The antimicrobial activities of gallium(III) complexes GaPic, GaDpic, GaChel, GaCldpic, free ligands (HPic, H2Dpic, H2Chel, H2Cldpic) and positive controls (cefoxitin (C), ampicillin (A) and piperacillin (P)) were evaluated by macrodilution method using G^+ bacteria (Firmicutes) Staphylococcus aureus (S. aureus) CCM 3953 (Czech Collection of Microorganisms), G^− bacteria (γ-proteobacteria) Escherichia coli (E. coli) CCM 3988, Pseudomonas aeruginosa (P. aeruginosa) CCM 1959 (Czech Collection of Microorganisms) and the yeast Candida parapsilosis (C. parapsilosis) ATCC 22019 (American type culture collection). Cultures of bacteria (in Mueller–Hinton broth, MHB) and yeasts (in Sabouraud’s growth medium, SB) were incubated under shaking (250 rpm) at 37 °C. The growth of bacteria and yeasts was evaluated by measuring the absorbance of the growing cultures (A590) until the cultures reached the stationary growth phase. The effects of gallium(III) complexes on the growth of filamentous fungi Rhizopus oryzae (R. oryzae) CCM F-8284, Alternaria alternata (A. alternata) CCM F-128 and Microsporum gypseum (M. gypseum) CCM F-8342 (Czech Collection of Microorganisms) were observed by macrodilution method on solidified potato-dextrose growth medium (PDA). During culturing, the diameters of growing fungal colonies were measured at regular intervals. Briefly, the antimicrobial activity (bacteria and yeasts) gallium(III) complexes/ ligands were added to the microbial culture at the beginning of the cultivation-to the lag phase. Pure gallium(III) complexes/ligands were dissolved in DMSO. The final concentration of DMSO never exceeded 1.0 vol. % neither in control nor treated samples. Concentration of gallium(III) complexes used in experimental work for evaluation of antimicrobial activity was used in the range of 0.05–2 mM, for the free ligands in the range of 0.5–2.0 mM in all experiments. […] The IC50 values were evaluated from toxicity curves. All the obtained results of antimicrobial activity were compared to the activity of Ga(NO3)3.

[3] = test system: HeLa (human cervical adenocarcinoma); test: MTS antiproliferative assay; conditions: read-out: Cytotoxic activity IC50 HeLa; MTS, 72 h of incubation
Description: (§2) Cell culture the cell lines A2058 (human metastatic melanoma), BLM (human metastatic melanoma), HCT116 (human colorectal carcinoma), HeLa (human cervical adenocarcinoma), Jurkat (human leukaemic T cell lymphoma). […] Cells were maintained in standard conditions with an atmosphere containing 5% CO2 at 37 °C.
(§3) The antiproliferative activity of Ga(III) complexes GaPic, GaDpic, GaChel, GaCldpic, free ligands (HPic, H2Dpic, H2Chel, H2Cldpic) and cisplatin (cisPt) were evaluated by colorimetric microculture MTS (3-(4,5-dimethylthiazol-2-yl)-5-(3-carboxymethoxyphenyl)-2-(4-sulfophenyl)-2H tetrazolium) assay (Promega, Madison, WI, USA). Cancer and non-cancer cells were seeded at density 5 × 10^3 cells/well in 96-well polystyrene microplates. Twenty-four hours after cell seeding, different concentrations (1.0—100.0 µM) of the compounds were tested. After 72 h of incubation, 10 µL of MTS was added to each well. After an additional 2 h, cell proliferation was evaluated by measuring of absorbance at wavelength 490 nm using the automated Cytation™ 3 Cell Imaging Multi-Mode Reader (Biotek, Winooski, VT, USA). The absorbance of control wells was taken as 100%, and the results were expressed as a percent of untreated control. IC50 values were calculated from MTS analyses.

[4] = test system: Jurkat (human leukaemic T cell lymphoma); test: MTS antiproliferative assay; conditions: read-out: Cytotoxic activity IC50 Jurkat; MTS, 72 h of incubation
Description: as §2, §3

[5] = test system: A2058 (human metastatic melanoma); test: MTS antiproliferative assay; conditions: read-out: Cytotoxic activity IC50 A2058; MTS, 72 h of incubation
Description: as §2, §3

[6] = test system: HCT116 (human colorectal carcinoma); test: MTS antiproliferative assay; conditions: read-out: Cytotoxic activity IC50 HCT116; MTS, 72 h of incubation
Description: as §2, §3

[7] = test system: PaTu 8902 (human pancreatic adenocarcinoma); test: MTS antiproliferative assay; conditions: read-out: Cytotoxic activity IC50 PaTu 8902; MTS, 72 h of incubation
Description: as §2, §3

[8] = test system: MDA-MB-231 (human mammary gland adenocarcinoma); test: MTS antiproliferative assay; conditions: read-out: Cytotoxic activity IC50 MDA-MB-231; MTS, 72 h of incubation
Description: as §2, §3

[9] = test system: human dermal fibroblasts (HDF); test: MTS antiproliferative assay (non-cancer cells); conditions: read-out: Cytotoxic activity IC50 HDF; MTS, 72 h of incubation
Description: as §2, §3

[10] = test system: Pseudomonas aeruginosa (P. aeruginosa) CCM 1959; test: Antimicrobial activity, macrodilution method (growth by A590); type: cell-based; conditions: Pseudomonas aeruginosa, CCM1959; positive control; read-out: MIC100 for P. aeruginosa
Description: as §1

O=C([O-])c1ccccn1.O=C([O-])c1ccccn1.[Ga+3] [[Ga(Pic)2]^+]
stability constant logβ021 [1]: 16.23(6)

O=C([O-])c1ccccn1.O=C([O-])c1ccccn1.O=C([O-])c1ccccn1.[Ga+3] [[Ga(Pic)3]]
stability constant logβ031 [1]: 20.86(2)

CO[C@@]1(NC(=O)Cc2cccs2)C(=O)N2C(C(=O)O)=C(COC(N)=O)CS[C@@H]21 [cefoxitin]
MIC [2]: 0.74 µM (≈ 0.316 µg/mL)

N.N.[Cl][Pt][Cl] [cisPt, cisplatin]
IC50 [3]: 35.4 ± 3.4 µM | IC50 [4]: 6.3 ± 0.5 µM | IC50 [5]: 17.6 ± 1.2 µM | IC50 [6]: 7.4 ± 0.8 µM | IC50 [7]: 12.9 ± 0.9 µM | IC50 [8]: 7.1 ± 0.3 µM | IC50 [9]: 40.1 ± 2.8 µM

CCN1CCN(C(=O)N[C@@H](C(=O)N[C@@H]2C(=O)N3[C@@H]2SC(C)(C)[C@@H]3C(=O)O)c2ccccc2)C(=O)C1=O [piperacillin]
MIC [10]: 5.81 µM (≈ 3.01 µg/mL)
